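96-well plates; 48 h exposure; 5 concentrations. Endpoints by linear interpolation between flanking doses. Not reached: highest tested concentration assigned. Abbreviation: GI50, concentration required for 50% inhibition of growth. Definition used: TGI = concentration required for complete inhibition of growth.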
Key:
Assay in all cases: growth of human tumour cells (NCI), 48 h
M14 melanoma = test system: M14 melanoma
SF-539 CNS = test system: SF-539 CNS
786-0 renal = test system: 786-0 renal
MDA-MB-231 breast = test system: MDA-MB-231 breast
MCF7 breast = test system: MCF7 breast
SK-MEL-5 melanoma = test system: SK-MEL-5 melanoma
CCRF-CEM leukemia = test system: CCRF-CEM leukemia
SR leukemia = test system: SR leukemia
COLO 205 colon = test system: COLO 205 colon
SNB-75 CNS = test system: SNB-75 CNS
BT-549 breast = test system: BT-549 breast
HT29 colon = test system: HT29 colon
LOX IMVI melanoma = test system: LOX IMVI melanoma
HOP-92 NSCLC = test system: HOP-92 NSCLC
SW-620 colon = test system: SW-620 colon
SK-OV-3 ovarian = test system: SK-OV-3 ovarian
PC-3 prostate = test system: PC-3 prostate
MALME-3M melanoma = test system: MALME-3M melanoma
KM12 colon = test system: KM12 colon
SF-295 CNS = test system: SF-295 CNS
MOLT-4 leukemia = test system: MOLT-4 leukemia
HOP-62 NSCLC = test system: HOP-62 NSCLC
SF-268 CNS = test system: SF-268 CNS
OVCAR-5 ovarian = test system: OVCAR-5 ovarian
RPMI-8226 leukemia = test system: RPMI-8226 leukemia
NCI-H460 lung = test system: NCI-H460 lung
CAKI-1 renal = test system: CAKI-1 renal
UACC-62 melanoma = test system: UACC-62 melanoma
NCI-H23 lung = test system: NCI-H23 lung
U251 CNS = test system: U251 CNS
SK-MEL-28 melanoma = test system: SK-MEL-28 melanoma
A498 renal = test system: A498 renal
HS 578T breast = test system: HS 578T breast
SNB-19 CNS = test system: SNB-19 CNS
HCT-15 colon = test system: HCT-15 colon
UACC-257 melanoma = test system: UACC-257 melanoma
T-47D breast = test system: T-47D breast
UO-31 renal = test system: UO-31 renal
K-562 leukemia = test system: K-562 leukemia
NCI/ADR-RES ovarian = test system: NCI/ADR-RES ovarian
OVCAR-3 ovarian = test system: OVCAR-3 ovarian
RXF 393 renal = test system: RXF 393 renal
SN12C renal = test system: SN12C renal
OVCAR-4 ovarian = test system: OVCAR-4 ovarian
SK-MEL-2 melanoma = test system: SK-MEL-2 melanoma
A549 NSCLC = test system: A549 NSCLC
ACHN renal = test system: ACHN renal
NCI-H522 lung = test system: NCI-H522 lung
OVCAR-8 ovarian = test system: OVCAR-8 ovarian
IGROV1 ovarian = test system: IGROV1 ovarian
HCC-2998 colon = test system: HCC-2998 colon
HCT-116 colon = test system: HCT-116 colon
DU-145 prostate = test system: DU-145 prostate
MDA-MB-435 = test system: MDA-MB-435
EKVX NSCLC = test system: EKVX NSCLC

COC(=O)CNC(=O)C(=O)c1c(O)c(O)c(C(C)C)c2cc(C)c(-c3c(C)cc4c(C(C)C)c(O)c(O)c(C(=O)C(=O)NCC(=O)OC)c4c3O)c(O)c12
GI50 (M14 melanoma): 2.09 µM | TGI (M14 melanoma): 9.9 µM | GI50 (SF-539 CNS): 1.77 µM | TGI (SF-539 CNS): 7.84 µM | GI50 (786-0 renal): 2.35 µM | TGI (786-0 renal): 8.77 µM | GI50 (MDA-MB-231 breast): 1.99 µM | TGI (MDA-MB-231 breast): 9.64 µM | GI50 (MCF7 breast): 1.64 µM | TGI (MCF7 breast): 6.11 µM | GI50 (SK-MEL-5 melanoma): 4.29 µM | TGI (SK-MEL-5 melanoma): 11.3 µM | GI50 (CCRF-CEM leukemia): 2.14 µM | TGI (CCRF-CEM leukemia): > 50 µM | GI50 (SR leukemia): 1.32 µM | TGI (SR leukemia): 7.76 µM | GI50 (COLO 205 colon): 1.28 µM | TGI (COLO 205 colon): 3.16 µM | GI50 (SNB-75 CNS): 1.61 µM | TGI (SNB-75 CNS): 8.5 µM | GI50 (BT-549 breast): 2.65 µM | TGI (BT-549 breast): 11.8 µM | GI50 (HT29 colon): 1.58 µM | TGI (HT29 colon): 5.36 µM | GI50 (LOX IMVI melanoma): 1.56 µM | TGI (LOX IMVI melanoma): 6.28 µM | GI50 (HOP-92 NSCLC): 1.38 µM | TGI (HOP-92 NSCLC): 3.81 µM | GI50 (SW-620 colon): 1.96 µM | TGI (SW-620 colon): 6.94 µM | GI50 (SK-OV-3 ovarian): 1.79 µM | TGI (SK-OV-3 ovarian): 6.89 µM | GI50 (PC-3 prostate): 1.84 µM | TGI (PC-3 prostate): 7.26 µM | GI50 (MALME-3M melanoma): 2.23 µM | TGI (MALME-3M melanoma): 11 µM | GI50 (KM12 colon): 1.39 µM | TGI (KM12 colon): 7.29 µM | GI50 (SF-295 CNS): 1.46 µM | TGI (SF-295 CNS): 6.89 µM | GI50 (MOLT-4 leukemia): 1.36 µM | TGI (MOLT-4 leukemia): 16 µM | GI50 (HOP-62 NSCLC): 2.41 µM | TGI (HOP-62 NSCLC): 9.61 µM | GI50 (SF-268 CNS): 1.88 µM | TGI (SF-268 CNS): 8.75 µM | GI50 (OVCAR-5 ovarian): 1.56 µM | TGI (OVCAR-5 ovarian): 9.13 µM | GI50 (RPMI-8226 leukemia): 2.72 µM | TGI (RPMI-8226 leukemia): > 50 µM | GI50 (NCI-H460 lung): 1.52 µM | TGI (NCI-H460 lung): 4.57 µM | GI50 (CAKI-1 renal): 3.74 µM | TGI (CAKI-1 renal): 14.3 µM | GI50 (UACC-62 melanoma): 2.23 µM | TGI (UACC-62 melanoma): 9.48 µM | GI50 (NCI-H23 lung): 1.53 µM | TGI (NCI-H23 lung): 6.37 µM | GI50 (U251 CNS): 1.53 µM | TGI (U251 CNS): 5.85 µM | GI50 (SK-MEL-28 melanoma): 2 µM | TGI (SK-MEL-28 melanoma): 8.61 µM | GI50 (A498 renal): 2.6 µM | TGI (A498 renal): 12.2 µM | GI50 (HS 578T breast): 1.83 µM | TGI (HS 578T breast): 8.58 µM | GI50 (SNB-19 CNS): 1.53 µM | TGI (SNB-19 CNS): 7.92 µM | GI50 (HCT-15 colon): 1.49 µM | TGI (HCT-15 colon): 5.63 µM | GI50 (UACC-257 melanoma): 7.89 µM | TGI (UACC-257 melanoma): 20.9 µM | GI50 (T-47D breast): 5.09 µM | TGI (T-47D breast): 40.9 µM | GI50 (UO-31 renal): 1.43 µM | TGI (UO-31 renal): 6.04 µM | GI50 (K-562 leukemia): 1.88 µM | TGI (K-562 leukemia): > 50 µM | GI50 (NCI/ADR-RES ovarian): 1.93 µM | TGI (NCI/ADR-RES ovarian): 9.28 µM | GI50 (OVCAR-3 ovarian): 1.61 µM | TGI (OVCAR-3 ovarian): 6.34 µM | GI50 (RXF 393 renal): 1.85 µM | TGI (RXF 393 renal): 8.39 µM | GI50 (SN12C renal): 1.97 µM | TGI (SN12C renal): 8.13 µM | GI50 (OVCAR-4 ovarian): 1.29 µM | TGI (OVCAR-4 ovarian): 4.58 µM | GI50 (SK-MEL-2 melanoma): 0.832 µM | TGI (SK-MEL-2 melanoma): 2.13 µM | GI50 (A549 NSCLC): 2.13 µM | TGI (A549 NSCLC): 8.01 µM | GI50 (ACHN renal): 1.42 µM | TGI (ACHN renal): 5.54 µM | GI50 (NCI-H522 lung): 1.32 µM | TGI (NCI-H522 lung): 3.43 µM | GI50 (OVCAR-8 ovarian): 2.05 µM | TGI (OVCAR-8 ovarian): 8.4 µM | GI50 (IGROV1 ovarian): 1.92 µM | TGI (IGROV1 ovarian): 8.94 µM | GI50 (HCC-2998 colon): 1.92 µM | TGI (HCC-2998 colon): 7.1 µM | GI50 (HCT-116 colon): 1.79 µM | TGI (HCT-116 colon): 6.04 µM | GI50 (DU-145 prostate): 1.99 µM | TGI (DU-145 prostate): 7.91 µM | GI50 (MDA-MB-435): 2.46 µM | TGI (MDA-MB-435): 9.3 µM | GI50 (EKVX NSCLC): 1.2 µM | TGI (EKVX NSCLC): 4.99 µM

Source: PubChem BioAssay (NCI)
